The text below walks through data of US9662063B2, “Pain sensory nerve stimulation apparatus” (INTER-UNIVERSITY RESEARCH INSTITUTE CORPORATION NATIONAL …, priority 2011, dated 2017).

Structures are written as SMILES.

For this test, the system named is C fibers. The test can be described thus: Current threshold for C fiber stimulation (anode stimulation) after application of capsaicin in vaseline to subjects. It is filed as in vivo. The note with it: for current threshold: anode stimulation of C fibers. The source says: Even when any one of the above-described configurations of the stimulation electrode 30 is used, at least one of an exogenous algesic substance 60 and a pyrogen 60 is interposed between the stimulation electrode 30 and the contact portion of the living body A, by means of, for example, application (FIG. 1). Examples of the exogenous algesic substance 60 are capsaicin, sanshool, zingerone, camphor, allyl isothiocyanate, and menthol. The exogenous algesic substance is a concept which contains an algesic substance, a phlogogenic substance, and an irritating substance. In the case where the exogenous algesic substance 60 is interposed by means of application, it is preferably applied about 20 minutes before stimulation of the living body. Preferably, the pyrogen 60 warms the stimulation portion of the living body A to about 30° C. by, for example, using heat generation due to an oxidation reaction of a metal. The operating section 24 includes a polarity conversion setting unit. The polarity conversion setting unit can give instructions for causing the polarity switching section 25 which is the electrical polarity converting unit, to convert the electrical polarity. According to the configuration, the electrical polarity of the needle electrode 31 can be set as the anode, and that of the contact electrode 32 can be set as the cathode, or, by contrast, the electrical polarity of the needle electrode 31 can be set as the cathode, and that of the contact electrode 32 can be set as the anode. […] In the case where the polarity switching section 25 sets the electrical polarity of the needle electrode 31 as the cathode, moreover, Aδ fibers can be selectively stimulated. Table 1 indicates results of measurements in which an appropriate amount (a weight ratio of about 0.05 to 0.1 with respect to vaseline) of capsaicin was applied as the exogenous algesic substance to four subjects. Table 1 indicates relationships between the current threshold in the case where the anode stimulation was performed on each subject and C fibers of each subject was stimulated, and the time period elapsed after the application. […] Since an effect due to stimulation was obtained even at a low stimulation intensity (mA), this minimizes the burden on a subject, and realizes the check of the nerve function. It was also confirmed that an effective examination can be conducted without being affected by the skill of the measuring person.

Consider `COc1cc(CNC(=O)CCCC/C=C/C(C)C)ccc1O` [capsaicin], for which the current threshold is, setting by setting: (Subject 1, 5 minutes after application, capsaicin weight ratio about 0.05 to 0.1 with respect to vaseline) 0.10 (mA); (Subject 1, 10 minutes after application) 0.10 (mA); (Subject 1, 15 minutes after application) 0.09 (mA); (Subject 1, 20 minutes after application) 0.09 (mA); (Subject 2, 5 minutes after application) 0.32 (mA); (Subject 2, 10 minutes after application) 0.18 (mA). Besides, the current threshold reads like this: (Subject 2, 15 minutes after application) 0.13 (mA); (Subject 2, 20 minutes after application) 0.15 (mA); (Subject 3, 5 minutes after application) 0.14 (mA); (Subject 3, 10 minutes after application) 0.13 (mA); (Subject 3, 20 minutes after application) 0.09 (mA); (Subject 4, 5 minutes after application) 0.05 (mA). For the same compound, the current threshold (Subject 4, 10 minutes after application) was 0.04 (mA); the current threshold (Subject 4, 15 minutes after application) was 0.04 (mA); the current threshold (Subject 4, 20 minutes after application) is given as 0.04 (mA). Moreover, the “current threshold reduced to fraction of the normal value” is, setting by setting: (Subject 2, during 20 minutes after the application) “about one half”; (Subject 3, during 20 minutes after the application) “about two thirds”. For the same compound, the “trend of the current threshold” value (four subjects, during 20 minutes after the application) was “downward trend”.
